Values quoted from earlier work, collected in patent US20250064725A1, “OPHTHALMIC PREPARATION OF TYROSINE KINASE INHIBITOR, AND PREPARATION METHOD THEREFOR AND USE THEREOF” (CHENGDU RUIMU BIOPHARMACEUTICALS CO., LTD., priority 2021, published 2025).

Experiments:
[1] = oral administration of tablets
[2] = system: age-related macular degeneration; details: oral tablets 50, 100, 200 mg/day

| SMILES | Incidence rate of diarrhea [1] [%] | Incidence rate of fatigue [1] [%] | Incidence rate of hypertension [1] [%] | Incidence rate of loss of appetite [1] [%] | Incidence rate of nausea [1] [%] | Toxicity outcome of the clinical trial [2] | Visual improvement ([2]; after 6 months) |
| --- | --- | --- | --- | --- | --- | --- | --- |
| CNC(=O)c1cc(Oc2ccc(NC(=O)Nc3ccc(Cl)c(C(F)(F)F)c3)cc2)ccn1 [sorafenib] | 53 | 32 | 29 | 29 | 22 |  |  |
| Cc1[nH]c(/C=C2\C(=O)Nc3ccc(F)cc32)c(C)c1C(=O)N[C@H]1CCN(C(=O)N(C)C)C1 [Example X-82] |  |  |  |  |  | suspended due to its toxicity | non-inferior |
| CNC(=O)c1ccccc1Sc1ccc2c(/C=C/c3ccccn3)n[nH]c2c1 [axitinib] | 55 | 39 | 40 | 34 | 32 |  |  |
